This is an account of results in US20230365554A1, “SUBSTITUTED PYRROLO-PYRIDINONE DERIVATIVES AND THERAPEUTIC USES THEREOF” (The Broad Institute, Inc., priority 2020, published 2023).

Experiment [1] has as its target human CSNK1A1 (Homo sapiens (Human), UniProt P48729). As to the kind of experiment: CSNK1A1 Assay 2 (ADP-Glo, 1 μM ATP). The experiment is classed as biochemical. Conditions: median, Table 2, read-out: CSNK1A1 Assay 2 IC50 [mol/l] (median). On the procedure:
CSNK1A1-inhibitory activity of compounds of the present invention in presence of 1 μM adenosine-tri-phosphate (ATP) was quantified employing the CSNK1A1 assay as described in the following paragraphs. In essence, the enzyme activity is measured by quantification of the adenosine-di-phosphate (ADP), which is generated as a co-product of the enzyme reaction, via the “ADP-Glo™ Kinase Assay” kit from the company Promega. This detection system works as follows: In a first step the ATP not consumed in the kinase reaction is quantitatively converted to cAMP employing an adenylate cyclase (“ADP-Glo-reagent”), then the adenylate cyclase is stopped and the ADP generated in the kinase reaction converted to ATP which generates in a luciferase-based reaction a glow-luminescence signal (“Kinase Detection Reagent”).
Recombinant fusion protein of N-terminal Glutathion-S-Transferase (GST) and full-length human CSNK1A1, expressed by baculovirus infected insect cells and purified via Glutathion affinity chromatography, was purchased from Life Technologies (product no. PV4174) and used as enzyme. As substrate for the kinase reaction the biotinylated peptide biotin-Ahx-KRRRAL-pS-VASLPGL (C-terminus in amide form) was used which can be purchased e.g. from the company Biosyntan (Berlin-Buch, Germany).
For the assay 50 nl of a 100 fold concentrated solution of the test compound in DMSO was pipetted into a white 1536-well microtiter plate (Greiner Bio-One, Frickenhausen, Germany), 2 μL of a solution of CSNK1A1 in aqueous assay buffer [50 mM HEPES pH 7.5, 10% (v/v) glycerol, 10 mM MgCl2, 50 mM NaCl, 1 mM dithiothreitol, 0.01% (w/v) bovine serum albumin, 0.01% (v/v) Triton X-100] were added and the mixture was incubated for 15 min at 22° C. to allow pre-binding of the test compounds to the enzyme before the start of the kinase reaction. Then the kinase reaction was started by the addition of 3 μL of a solution of ATP (1.67 μM=>final conc. in the 5 μL assay volume is 1 μM) and peptide substrate (50 μM=>final conc. in the 5 μL assay volume is 30 μM) in assay buffer and the resulting mixture was incubated for a reaction time of 30 min at 22° C. The concentration of CSNK1A1 was adjusted depending of the activity of the enzyme lot and was chosen appropriate to have the assay in the linear range, a typical concentrations are about 0.0375 ng/μL. The reaction was stopped by the addition of 2.5 μL of “ADP-Glo-reagent” (1:1.5 fold diluted with water) and the resulting mixture was incubated at 22° C. for 1 h to convert the ATP not consumed in the kinase reaction completely […]. Subsequently 2.5 μL of the “kinase detection reagent” (1.2 fold more concentrated than recommended by the producer) were added, the resulting mixture was incubated at 22° C. for 1 h and then the luminescence measured with a suitable measurement instrument (e.g. Viewlux™ from Perkin-Elmer). The amount of emitted light was taken as a measure for the amount of ADP generated and thereby for the activity of the CSNK1A1.
(§1) The data were normalised (enzyme reaction without inhibitor=0% inhibition, all other assay components but no enzyme=100% inhibition).
(In general: ADP-Glo first removes unused ATP, then detects ADP through luciferase.)

Experiment [2] deals with human CSNK1D (Homo sapiens (Human), UniProt P48730). As to the kind of experiment: CSNK1D assay (ADP-Glo, 1 μM ATP). Type of experiment: biochemical. Conditions: median, Table 2, read-out: CSNK1D IC50 [mol/l] (median). On the procedure: CSNK1D-inhibitory activity of compounds of the present invention in presence of 1 μM adenosine-tri-phosphate (ATP) was quantified employing the CSNK1D assay as described in the following paragraphs. In essence, the enzyme activity is measured by quantification of the adenosine-di-phosphate (ADP), which is generated as a co-product of the enzyme reaction, via the “ADP-Glo™ Kinase Assay” kit from the company Promega. This detection system works as follows: In a first step the ATP not consumed in the kinase reaction is quantitatively converted to cAMP employing an adenylate cyclase (“ADP-Glo-reagent”), then the adenylate cyclase is stopped and the ADP generated in the kinase reaction converted to ATP which generates in a luciferase-based reaction a glow-luminescence signal (“Kinase Detection Reagent”).
Recombinant fusion protein of N-terminal Glutathion-S-Transferase (GST) and full-length human CSNK1D, expressed by baculovirus infected insect cells and purified via Glutathion affinity chromatography, was purchased from Life Technologies (product no. PV3665) and used as enzyme. As substrate for the kinase reaction the biotinylated peptide Btn-Ahx-SGSEGDSESGEEEG (C-terminus in amide form) was used which can be purchased e.g. from the company Biosyntan (Berlin-Buch, Germany).
For the assay 50 nl of a 100 fold concentrated solution of the test compound in DMSO was pipetted into a white 1536-well microtiter plate (Greiner Bio-One, Frickenhausen, Germany), 2 μL of a solution of CSNK1D in aqueous assay buffer [50 mM HEPES pH 7.5, 10% (v/v) glycerol, 10 mM MgCl2, 50 mM NaCl, 1 mM dithiothreitol, 0.01% (w/v) bovine serum albumin, 0.01% (v/v) Triton X-100] were added and the mixture was incubated for 15 min at 22° C. to allow pre-binding of the test compounds to the enzyme before the start of the kinase reaction. Then the kinase reaction was started by the addition of 3 μL of a solution of ATP (1.67 μM=>final conc. in the 5 μL assay volume is 1 μM) and peptide substrate (50 μM=>final conc. in the 5 μL assay volume is 30 μM) in assay buffer and the resulting mixture was incubated for a reaction time of 30 min at 22° C. The concentration of CSNK1D was adjusted depending of the activity of the enzyme lot and was chosen appropriate to have the assay in the linear range, a typical concentration is about 0.5 ng/μL. The reaction was stopped by the addition of 2.5 μL of “ADP-Glo-reagent” (1:1.5 fold diluted with water) and the resulting mixture was incubated at 22° C. for 1 h to convert the ATP not consumed in the kinase reaction completely […]. Subsequently 2.5 μL of the “kinase detection reagent” (1.2 fold more concentrated than recommended by the producer) were added, the resulting mixture was incubated at 22° C. for 1 h and then the luminescence measured with a suitable measurement instrument (e.g. Viewlux™ from Perkin-Elmer). The amount of emitted light was taken as a measure for the amount of ADP generated and thereby for the activity of the CSNK1D.
as §1

Chain of human CSNK1D (P48730 whole entry): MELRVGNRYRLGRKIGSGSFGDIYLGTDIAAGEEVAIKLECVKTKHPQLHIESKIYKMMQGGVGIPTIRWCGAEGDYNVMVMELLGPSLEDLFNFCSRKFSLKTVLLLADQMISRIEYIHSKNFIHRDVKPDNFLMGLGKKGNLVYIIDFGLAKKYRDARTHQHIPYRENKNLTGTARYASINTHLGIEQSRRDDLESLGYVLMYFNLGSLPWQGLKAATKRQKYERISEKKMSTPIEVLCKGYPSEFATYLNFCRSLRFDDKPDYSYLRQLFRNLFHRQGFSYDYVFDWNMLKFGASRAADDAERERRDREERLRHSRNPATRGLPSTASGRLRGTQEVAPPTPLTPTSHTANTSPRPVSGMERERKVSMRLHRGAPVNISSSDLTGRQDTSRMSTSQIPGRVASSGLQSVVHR
Chain of human CSNK1A1 (P48729 whole entry): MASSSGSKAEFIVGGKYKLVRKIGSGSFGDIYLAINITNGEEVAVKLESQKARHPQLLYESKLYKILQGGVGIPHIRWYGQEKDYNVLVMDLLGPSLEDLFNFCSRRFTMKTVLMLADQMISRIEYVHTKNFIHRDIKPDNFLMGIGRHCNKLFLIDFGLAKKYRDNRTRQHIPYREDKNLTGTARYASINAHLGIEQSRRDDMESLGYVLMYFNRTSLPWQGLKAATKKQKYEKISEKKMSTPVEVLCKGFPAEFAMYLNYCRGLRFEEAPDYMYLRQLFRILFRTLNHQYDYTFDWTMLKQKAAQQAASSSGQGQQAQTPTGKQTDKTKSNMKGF

As for `Cn1cc(CC(F)(F)F)c2[nH]c(-c3ccnc(NC(=O)C(CC(F)F)c4ccc(F)cc4)c3)c(Nc3ccccc3)c2c1=O` (racemic) [Example 35, N-{4-[3-anilino-5-methyl-4-oxo-7-(2,2,2-trifluoroethyl)-4,5-dihydro-1H-pyrrolo[3,2-c]pyridin-2-yl]pyridin-2-yl}-4,4-difluoro-2-(4-fluorophenyl)butanamide], the results for the IC50 in experiment [1] and in experiment [2] were 8 nM and 5.9 nM, respectively.
